Measurements as given in US9388147B2 (Receptos, Inc., priority 2009, dated 2016).
Structures can show the parent of a compound that is named as a salt. Where two headings read alike, the source gives them in different places.

Legend:
[1] = Evaluation of therapeutic index in rats: 5 or 14 day toxicology study, lung to body weight ratio; type: in vivo, Sprague-Dawley rat; conditions: for Dose Resulting in 10% increase in lung weight: rats, oral, 5 or 14 consecutive days, interpolated from dose versus lung to body weight; for TI 14 days: therapeutic index: dose producing 10% lung weight increase / dose producing 50% T-cell depletion, 14 day toxicology study in rats
Procedure: All studies were conducted in non-fasted male and female Sprague-Dawely rats (Simonsen Laboratories). Rats were housed in an AAALAC accredited facility and the research was approved by the facilities Institutional Animal Care and Use Committee (IACUC). The animals were acclimated to the laboratory for at least 5 days prior to initiation of experiments.
The compounds listed in Table 6 were formulated as suspensions in a vehicle consisting of 0.5% carboxymethyl cellulose (Acros Organics) in purified water (pH adjusted to ˜2.2 with hydrochloric acid). The same formulation was used in the rat lymphopenia and toxicology studies described below. The concentration of each compound in suspension was verified to be within ±10% of the target concentration by HPLC-UV.
In the toxicology studies, three male and three female rats per group were assigned to dosing groups using body weight based randomization. A control group in each study received vehicle. All animals were dosed orally by gavage on 5 or 14-consecutive days at a dose volume of 5 mL/kg/day. The animals were observed daily for any manifestations of adverse effect. Twenty-four hours after the final study dose, the rats were anesthetized with isoflurane and a terminal blood sample was taken by intra-cardiac puncture for hematology and clinical chemistry evaluation (IDEXX Laboratories, Sacramento, Calif.). The lungs with trachea were collected, weighed, and then prepared for histology by perfusion with 10% neutral buffered formalin via the trachea. The internally fixed lungs were then preserved in 10% neutral buffered formalin and submitted for histological examination (IDEXX).
The dose of each compound resulting in a 10% increase in the lung to terminal body weight ratio was estimated for each compound by linear interpolation. The therapeutic index was estimated as the ratio of the dose producing 10% lung weight increase to the dose producing 50% T-Cell depletion.
The dose producing a 10% increase in lung to body weight ratio was interpolated from a plot of dose versus lung to body weight. The lymphopenia response was measured 24 hours following the final dose of a 3-5 day multiple dose regimen.

S1P4 = molecular target: T1, S1P4 (Homo sapiens, UniProt O95977); experiment: Specificity over other S1P receptors: S1P4-bla TANGO U2OS assay; type: cell-based; conditions: read-out: S1P4 agonist value (EC50)
T1 construct: Tango fusion (own knowledge: protease cleavage site plus GAL4-VP16 transcription factor at the receptor's C-terminus); host or cells: U2OS (Tango -bla)
T1 sequence (O95977 1-384): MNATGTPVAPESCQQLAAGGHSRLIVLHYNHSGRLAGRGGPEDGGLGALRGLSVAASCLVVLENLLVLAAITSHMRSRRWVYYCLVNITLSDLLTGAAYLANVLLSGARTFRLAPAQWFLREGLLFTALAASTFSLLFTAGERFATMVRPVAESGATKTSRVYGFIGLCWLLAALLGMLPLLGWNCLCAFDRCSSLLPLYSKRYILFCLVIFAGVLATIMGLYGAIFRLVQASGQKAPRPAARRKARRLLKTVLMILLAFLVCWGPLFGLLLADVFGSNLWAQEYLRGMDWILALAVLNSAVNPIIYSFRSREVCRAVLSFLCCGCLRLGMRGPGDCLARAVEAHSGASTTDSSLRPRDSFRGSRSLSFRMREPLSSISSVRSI
Procedure: (§1) Cells were seeded into 384-well black wall/clear bottom plates at 10^4 cells/well/19.5 μl assay media (DMEM-phenol free, 0.5% charcoal/dextran stripped serum, 2 mM glutamine, 0.1 mM NEAA, 1 mM Na-Pyruvate, 25 mM Hepes) and incubated for 18 hrs at 37° C. in 5% CO2. Dose response curves (10-point) were generated in 10 mM Hepes, 0.1% Pluronic F127, in the presence of Forskolin. Cells were treated with 0.5 μl compound in the presence of 2 μM Forskolin for 4 hrs at 37° C. The FRET-based β-lactamase fluorescent substrate (LiveBLAzer™-FRET B/G Loading Kit CC4-AM; Invitrogen) was prepared according to manufacturer's directions, and incubated with cells for 2 hrs at room temperature. Plates were read at Ex:410/Em:458 and Ex:410/Em:522, and the response ratio determined. Data was analyzed by non-linear regression to determine the EC50 for inhibition of Forskolin induced cAMP.
(§2) To assess compound specificity on other S1P receptors the following cell lines were used: S1P2 CRE-bla CHOK1, S1P3-Gα15 NFAT-bla HEK293T (Invitrogen), S1P4-bla TANGO U2OS (Invitrogen), S1P5-bla TANGO U2OS (Invitrogen). The same assay set up for S1P1 was used but without Forskolin. S1P4 and S1P5 assays were performed in FreeStyle Expression medium (Invitrogen). S1P5 cells were incubated for 48 hrs in prior to treatment with compound.

S1P2 = molecular target: T2, S1P2 (Homo sapiens, UniProt O95136); experiment: Specificity over other S1P receptors: S1P2 CRE-bla CHOK1 reporter assay; type: cell-based; conditions: S1P2 CRE-bla CHOK1, without Forskolin; read-out: S1P2 agonist value (EC50)
T2 construct: expressed in transfected cells; host or cells: CRE-bla CHOK1
T2 sequence (O95136 whole entry, species assumed): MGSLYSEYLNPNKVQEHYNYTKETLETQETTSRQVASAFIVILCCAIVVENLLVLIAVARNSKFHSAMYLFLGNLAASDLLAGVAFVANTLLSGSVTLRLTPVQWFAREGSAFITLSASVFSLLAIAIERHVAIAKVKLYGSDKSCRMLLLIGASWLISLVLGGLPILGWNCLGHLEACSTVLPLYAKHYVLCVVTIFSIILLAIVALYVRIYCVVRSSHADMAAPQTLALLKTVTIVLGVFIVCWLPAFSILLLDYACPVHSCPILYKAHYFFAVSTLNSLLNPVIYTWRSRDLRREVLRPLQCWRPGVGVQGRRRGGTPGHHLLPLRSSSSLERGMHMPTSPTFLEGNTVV
Procedure: as §1, §2

S1P5 = molecular target: T3, S1P5 (Homo sapiens, UniProt Q9H228); experiment: Specificity over other S1P receptors: S1P5-bla TANGO U2OS assay; type: cell-based; conditions: read-out: S1P5 agonist value (EC50)
T3 construct: Tango fusion (own knowledge: protease cleavage site plus GAL4-VP16 transcription factor at the receptor's C-terminus); host or cells: U2OS (Tango -bla)
T3 sequence (Q9H228 whole entry, the tested form may be a part): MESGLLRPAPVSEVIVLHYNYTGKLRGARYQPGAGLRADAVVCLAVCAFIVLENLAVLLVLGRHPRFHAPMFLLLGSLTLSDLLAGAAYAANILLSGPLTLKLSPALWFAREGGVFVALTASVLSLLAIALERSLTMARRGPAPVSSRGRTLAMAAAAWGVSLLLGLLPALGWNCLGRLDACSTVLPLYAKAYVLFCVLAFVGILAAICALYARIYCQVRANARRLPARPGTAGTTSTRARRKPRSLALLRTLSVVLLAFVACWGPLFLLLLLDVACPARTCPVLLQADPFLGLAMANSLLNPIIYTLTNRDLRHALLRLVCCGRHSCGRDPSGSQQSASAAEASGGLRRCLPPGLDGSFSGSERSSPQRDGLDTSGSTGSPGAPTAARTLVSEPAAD
Procedure: as §1, §2

S1P1/EDG1 = S1P1/EDG1 (Homo sapiens, UniProt P21453); experiment: S1P1 CRE-bla CHOK1 reporter assay, inhibition of Forskolin induced cAMP; type: cell-based
S1P1/EDG1, sequence (P21453 whole entry): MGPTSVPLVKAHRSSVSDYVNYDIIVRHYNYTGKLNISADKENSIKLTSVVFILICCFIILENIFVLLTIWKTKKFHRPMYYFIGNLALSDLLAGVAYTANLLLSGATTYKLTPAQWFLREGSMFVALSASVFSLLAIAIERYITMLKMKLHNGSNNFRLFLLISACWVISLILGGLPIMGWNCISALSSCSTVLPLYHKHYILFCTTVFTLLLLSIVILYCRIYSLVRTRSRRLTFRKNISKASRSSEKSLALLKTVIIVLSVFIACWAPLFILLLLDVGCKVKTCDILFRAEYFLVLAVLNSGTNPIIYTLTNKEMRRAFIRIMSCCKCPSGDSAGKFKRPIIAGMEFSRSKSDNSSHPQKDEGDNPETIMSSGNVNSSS
Outline: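 Read-out is a FRET β-lactamase substrate (2 h, room temperature) after 4 h, 37 °C compound treatment under 2 μM Forskolin in stable S1P1-transfected CRE-bla CHO-K1 cells. Ten-point curves; non-linear regression gives EC50 for inhibition of Forskolin-stimulated cAMP.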

S1P3 = molecular target: T4, S1P3 (Homo sapiens, UniProt Q99500); experiment: Specificity over other S1P receptors: S1P3-Gα15 NFAT-bla HEK293T reporter assay; type: cell-based; conditions: without Forskolin, read-out: S1P3 agonist value (EC50)
T4 construct: host or cells: NFAT-bla HEK293T
T4 sequence (Q99500 whole entry): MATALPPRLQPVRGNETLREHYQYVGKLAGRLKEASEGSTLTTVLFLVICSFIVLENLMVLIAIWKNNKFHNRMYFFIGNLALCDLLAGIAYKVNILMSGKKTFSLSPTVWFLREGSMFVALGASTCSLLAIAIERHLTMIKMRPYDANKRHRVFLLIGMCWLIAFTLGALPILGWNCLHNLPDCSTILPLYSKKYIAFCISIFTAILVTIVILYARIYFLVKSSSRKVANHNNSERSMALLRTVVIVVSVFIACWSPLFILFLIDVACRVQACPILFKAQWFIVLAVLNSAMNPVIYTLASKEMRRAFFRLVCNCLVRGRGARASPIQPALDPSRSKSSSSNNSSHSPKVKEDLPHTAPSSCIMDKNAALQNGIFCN
Procedure: as §1, §2

[2] = S1P1 CRE-bla CHOK1, with Forskolin, read-out: S1P1 agonist value (EC50)
[3] = agonist activity range, S1P1 CRE-bla CHOK1, 2 μM Forskolin, read-out: S1P1 ACTIVITY

SMILES	Dose Resulting in 10% increase in lung weight [1] [mg/kg]	TI 14 days [1]	EC50 (S1P4) [nM]	EC50 (S1P2) [nM]	EC50 (S1P5) [nM]	EC50 (S1P1/EDG1; [2]) [nM]	EC50 (S1P1/EDG1; [3]) [nM]	EC50 (S1P3) [nM]
CC(C)Oc1ccc(-c2nc(-c3cccc4c3CC[C@@H]4NCC(=O)N(C)C)no2)cc1C#N [Compound 91, (S)-2-(4-(5-(3-cyano-4-isopropoxyphenyl)-1,2,4-oxadiazol-3-yl)-2,3-dihydro-1H-inden-1-ylamino)-N,N-dimethylacetamide]	0.3	1	> 10000	> 10000	15.2	0.09	0.05 to 0.5	> 10000
CC(C)Oc1ccc(-c2nc(-c3cccc4c3CC[C@@H]4N)no2)cc1C#N [Compound 50, (S)-5-(3-(1-amino-2,3-dihydro-1H-inden-4-yl)-1,2,4-oxadiazol-5-yl)-2-isopropoxy-benzonitrile]	2.0	20	7870	7720	44.5	0.19	0.05 to 0.5	8910
CC(C)Oc1ccc(-c2nc(-c3cccc4c3CC[C@H]4NCCO)no2)cc1C#N [Compound 85, (R)-5-(3-(1-(2-hydroxyethylamino)-2,3-dihydro-1H-inden-4-yl)-1,2,4-oxadiazol-5-yl)-2-isopropoxybenzonitrile]	2.8	14	1610	5690	15.1	–	–	4500
CC(C)Oc1ccc(-c2nc(-c3cccc4c3CC[C@H]4N)no2)cc1C#N [Compound 49, (R)-5-(3-(1-amino-2,3-dihydro-1H-inden-4-yl)-1,2,4-oxadiazol-5-yl)-2-isopropoxy-benzonitrile hydrochloride]	0.2	2	9030	1080	20.1	0.17	0.05 to 0.5	8940
CC(C)Oc1ccc(-c2nc(-c3cccc4c3CC[C@H]4NCC(=O)N(C)C)no2)cc1C#N [Compound 90, (R)-2-(4-(5-(3-cyano-4-isopropoxyphenyl)-1,2,4-oxadiazol-3-yl)-2,3-dihydro-1H-inden-1-ylamino)-N,N-dimethylacetamide hydrochloride]	5.5	14	> 10000	6660	12.9	0.13	0.05 to 0.5	8820
